Measurements published in US20100256104A1, “NOVEL AMIDE COMPOUNDS” (ASTRAZENECA R&D, priority 2009, published 2010).

target: T1, recombinant human GR (Homo sapiens, UniProt P04150); experiment: Human Glucocorticoid Receptor (GR) Assay, fluorescence polarization competition with GS Red tracer; conditions: 2 hours at room temperature, 100% control 10 μM Dexamethasone, XLfit model 205, read-out: Inhibition of GR binding, IC50
T1 construct: purchased Panvera/Invitrogen P2812 (kit P2893)
T1 sequence (P04150 1-777): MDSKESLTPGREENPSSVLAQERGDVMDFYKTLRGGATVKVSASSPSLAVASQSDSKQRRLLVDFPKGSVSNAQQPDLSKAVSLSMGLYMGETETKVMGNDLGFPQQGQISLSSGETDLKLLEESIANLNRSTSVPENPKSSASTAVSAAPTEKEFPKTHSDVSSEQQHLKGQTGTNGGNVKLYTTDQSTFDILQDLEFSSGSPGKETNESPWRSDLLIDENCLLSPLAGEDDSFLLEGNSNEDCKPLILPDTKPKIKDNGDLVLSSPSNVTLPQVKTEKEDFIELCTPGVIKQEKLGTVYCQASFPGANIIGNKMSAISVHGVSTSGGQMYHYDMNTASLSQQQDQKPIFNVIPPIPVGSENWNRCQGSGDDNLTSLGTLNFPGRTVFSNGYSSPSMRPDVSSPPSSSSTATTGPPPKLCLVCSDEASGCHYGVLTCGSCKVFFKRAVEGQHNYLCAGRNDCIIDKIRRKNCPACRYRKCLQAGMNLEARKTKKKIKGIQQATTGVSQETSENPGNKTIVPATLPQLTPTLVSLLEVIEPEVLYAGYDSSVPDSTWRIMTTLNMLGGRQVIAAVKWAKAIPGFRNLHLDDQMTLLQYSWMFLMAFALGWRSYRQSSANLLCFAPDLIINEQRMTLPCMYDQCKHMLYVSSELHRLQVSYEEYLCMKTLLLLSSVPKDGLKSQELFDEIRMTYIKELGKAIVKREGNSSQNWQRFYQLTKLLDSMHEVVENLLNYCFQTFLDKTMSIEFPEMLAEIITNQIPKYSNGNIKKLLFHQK
Experimental: Human Glucocorticoid Receptor (GR) Assay The assay is based on a commercial kit from Panvera/Invitrogen (Part number P2893). The assay technology is fluorescence polarization. The kit utilises recombinant human GR (Panvera, Part number P2812), a Fluoromone™ labelled tracer (GS Red, Panvera, Part number P2894) and a Stabilizing Peptide 10X (Panvera, Part number P2815). The GR and Stabilizing Peptide reagents are stored at −70° C. while the GS Red is stored at −20° C. Also included in the kit are 1M DTT (Panvera, Part number P2325, stored at −20° C.) and GR Screening buffer 10X (Panvera, Part number P2814, stored at −70° C. initially but once thawed stored at room temperature). Avoid repeated freeze/thaws for all reagents. The GR Screening buffer 10X comprises 100 mM potassium phosphate, 200 mM sodium molybdate, 1 mM EDTA and 20% DMSO. Test compounds (1 μL) and controls (1 μL) in 100% DMSO were added to black polystyrene 384-well plates (Greiner low volume black flat-bottom, part number 784076). 0% control was 100% DMSO and 100% control was 10 μM Dexamethasone. Background solution (8 μL; assay buffer 10X, Stabilizing Peptide, DTT and ice cold MQ water) was added to the background wells. GS Red solution (7 μL; assay buffer 10X, Stabilizing Peptide, DTT, GS Red and ice cold water) was added to all wells except background wells. GR solution (7 μL; assay buffer 10X, Stabilizing Peptide, DTT, GR and ice cold water) was added to all wells. The plate was sealed and incubated in a dark at room temperature for 2 hours. The plate was read in an Analyst plate reader (LJL Biosystems/Molecular Devices Corporation) or other similar plate reader capable of recording fluorescence polarization (excitation wavelength 530 nm, emission wavelength 590 nm and a dichroic mirror at 561 nm).

SMILES	IC50 [nM]
CCC(=O)O[C@]1(C(=O)SCF)CC[C@H]2[C@@H]3CCC4=Cc5c(cnn5-c5cccc(C(=O)NCC(N)=O)c5)C[C@]4(C)[C@@]3(F)[C@@H](O)C[C@@]21C [Example 44, (1R,3aS,3bS,10aS, 10bR,11S,12aS)-7-{3-[(2-amino-2-oxoethyl)carbamoyl]phenyl}-10b-fluoro-1-{[(fluoromethyl)sulfanyl]carbonyl}-11-hydroxy-10a,12a-dimethyl-1,2,3,3a,3b,4,5,7,10, 10a,10b,11,12,12a-tetradecahydrocyclo-penta[5,6]naphtho [1,2-f]indazol-1-yl propanoate]	2.2
CCC(=O)O[C@]1(C(=O)SCF)[C@H](C)C[C@H]2[C@@H]3CCC4=Cc5c(cnn5-c5cccc(C(=O)N[C@H](C)C(N)=O)c5)C[C@]4(C)[C@@]3(F)[C@@H](O)C[C@@]21C [Example 26, (1R,2R,3aS,3bS, 10aS,10bR,11S,12aS)-7-(3-{[(1R)-2-amino-1-methyl-2-oxoethyl]carbamoyl}phenyl)-10b-fluoro-1-{[(fluoromethyl)-sulfanyl]carbonyl}-11-hydroxy-2,10a,12a-trimethyl-1,2,3,3a,3b,4,5,7,10, 10a,10b,11,12,12a-tetradecahydrocyclo-penta[5,6]naphtho [1,2-f]indazol-1-yl propanoate]	2
CCC(=O)O[C@]1(C(=O)SCF)CC[C@H]2[C@@H]3C[C@H](C)C4=Cc5c(cnn5-c5cccc(C(=O)N[C@H](C)C(N)=O)c5)C[C@]4(C)[C@H]3[C@@H](O)C[C@@]21C [Example 24, (1R,3aS,3bS,5S,10aR, 10bS,11S,12aS)-7-(3-{[(1R)-2-amino-1-methyl-2-oxoethyl]carbamoyl}phenyl)-1-{[(fluoromethyl)sulfanyl]carbonyl}-11-hydroxy-5,10a,12a-trimethyl-1,2,3,3a,3b,4,5,7,10, 10a,10b,11,12,12a-tetradecahydrocyclo-penta[5,6]naphtho [1,2-f]indazol-1-yl propanoate]	2.1
C[C@]12Cc3cnn(-c4cccc(C(=O)N5CCC[C@@H]5C(N)=O)c4)c3C=C1CC[C@H]1[C@@H]3CC[C@](OC(=O)C4CC4)(C(=O)SCF)[C@@]3(C)C[C@H](O)[C@@]12F [Example 55, (1R,3aS,3bS,10aS, 10bR,11S,12aS)-7-(3-{[(2R)-2-carbamoyl-pyrrolidin-1-yl]carbonyl}phenyl)-10b-fluoro-1-{[(fluoromethyl)sulfanyl]carbonyl}-11-hydroxy-10a,12a-dimethyl-1,2,3,3a,3b,4,5,7,10, 10a,10b,11,12,12a-tetradecahydrocyclo-penta[5,6]naphtho [1,2-f]indazol-1-yl cyclopropanecarboxylate]	3.5
CCC(=O)O[C@]1(C(=O)SCF)CC[C@H]2[C@@H]3C[C@H](C)C4=Cc5c(cnn5-c5cccc(C(=O)NCC(N)=O)c5)C[C@]4(C)[C@H]3[C@@H](O)C[C@@]21C [Example 37, (1R,3aS,3bS,5S,10aR, 10bS,11S,12aS)-7-{3-[(2-amino-2-oxoethyl)carbamoyl]phenyl}-1-{[(fluoromethyl)sulfanyl]carbonyl}-11-hydroxy-5,10a, 12a-trimethyl-1,2,3,3a,3b,4,5,7,10, 10a,10b,11,12,12a-tetradecahydrocyclo-penta[5,6]naphtho [1,2-f]indazol-1-yl propanoate]	7.1
CCC(=O)O[C@]1(C(=O)SCF)[C@H](C)C[C@H]2[C@@H]3CCC4=Cc5c(cnn5-c5cccc(C(=O)NCC(N)=O)c5)C[C@]4(C)[C@@]3(F)[C@@H](O)C[C@@]21C [Example 41, (1R,2R,3aS,3bS, 10aS,10bR,11S,12aS)-7-{3-[(2-amino-2-oxoethyl)carbamoyl]phenyl}-10b-fluoro-1-{[(fluoromethyl)sulfanyl]carbonyl}-11-hydroxy-2,10a,12a-trimethyl-1,2,3,3a,3b,4,5,7,10, 10a,10b,11,12,12a-tetradecahydrocyclo-penta[5,6]naphtho [1,2-f]indazol-1-yl propanoate]	1.2
CCC(=O)O[C@]1(C(=O)SCF)[C@H](C)C[C@H]2[C@@H]3CCC4=Cc5c(cnn5-c5cccc(C(=O)NCc6cccnc6)c5)C[C@]4(C)[C@@]3(F)[C@@H](O)C[C@@]21C [Example 43, (1R,2R,3aS,3bS, 10aS,10bR,11S,12aS)-10b-fluoro-1-{[(fluoromethyl)sulfanyl]carbonyl}-11-hydroxy-2,10a,12a-trimethyl-7-{3-[(pyridin-3-ylmethyl)carbamoyl]phenyl}-1,2,3,3a,3b,4,5,7,10, 10a,10b,11,12,12a-tetradecahydrocyclo-penta[5,6]naphtho [1,2-f]indazol-1-yl propanoate]	1.9
COCC(=O)O[C@]1(C(=O)SCF)[C@H](C)C[C@H]2[C@@H]3CCC4=Cc5c(cnn5-c5cccc(C(=O)N[C@@H](C)C(N)=O)c5)C[C@]4(C)[C@@]3(F)[C@@H](O)C[C@@]21C [Example 22, (1R,2R,3aS,3bS,10aS,10bR,11S,12aS)-7-(3-{[(1S)-2-Amino-1-methyl-2-oxoethyl]carbamoyl}phenyl)-10b-fluoro-1-{[(fluoromethyl)sulfanyl]carbonyl}-11-hydroxy-2,10a,12a-trimethyl-1,2,3,3a,3b,4,5,7,10,10a,10b,11,12,12a-tetradecahydrocyclopenta[5,6]naphtho[1,2-f]indazol-1-yl methoxyacetate]	1.9
CNC(=O)c1cccc(-n2ncc3c2C=C2CC[C@H]4[C@@H]5C[C@@H](C)[C@](OC(=O)COC)(C(=O)SCF)[C@@]5(C)C[C@H](O)[C@]4(F)[C@@]2(C)C3)c1 [Example 28, 1R,2R,3aS,3bS, 10aS,10bR,11S,12aS)-10b-fluoro-1-{[(fluoromethyl)sulfanyl] carbonyl}-11-hydroxy-2,10a,12a-trimethyl-7[3-(methylcarbamoyl)phenyl]-1,2,3,3a,3b,4,5,7,10, 10a,10b,11,12,12a-tetradecahydrocyclo-penta[5,6]naphtho [1,2-f]indazol-1-yl methoxyacetate]	2.3
CCC(=O)O[C@]1(C(=O)SCF)[C@H](C)C[C@H]2[C@@H]3CCC4=Cc5c(cnn5-c5cccc(C(=O)N6CCC[C@@H]6C(N)=O)c5)C[C@]4(C)[C@@]3(F)[C@@H](O)C[C@@]21C [Example 42, (1R,2R,3aS,3bS, 10aS,10bR,11S,12aS)-7-(3-{[(2R)-2-carbamoyl-pyrrolidin-1-yl]carbonyl}phenyl)-10b-fluoro-1-{(fluoromethyl)sulfanyl] carbonyl}-11-hydroxy-2,10a,12a-trimethyl-1,2,3,3a,3b,4,5,7,10, 10a,10b,11,12,12a-tetradecahydrocyclo-penta[5,6]naphtho [1,2-f]indazol-1-yl propanoate]	4.4
CCC(=O)O[C@]1(C(=O)SCC#N)CC[C@H]2[C@@H]3CCC4=Cc5c(cnn5-c5cccc(C(=O)NCCOC)c5)C[C@]4(C)[C@H]3[C@@H](O)C[C@@]21C [Example 1, (1R,3aS,3bS,10aR,10bS,11S,12aS)-1-{[(Cyanomethyl)sulfanyl]carbonyl}-11-hydroxy-7-{3-[(2-methoxyethyl)carbamoyl]phenyl}-10a,12a-dimethyl-1,2,3,3a,3b,4,5,7,10,10a,10b,11,12,12a-tetradecahydrocyclopenta[5,6]naphtho[1,2-f]indazol-1-yl propanoate]	1
